Measurements as given in publication PMC3668458 (Journal of neuroscience research, 2011).

Biological target: α4β2 nicotinic acetylcholine receptor (α4 subunit) (Homo sapiens, UniProt P17787+P43681)
Assay: whole-cell patch clamp, Schild plot analysis of inhibition of ACh currents
Type: cell-based

α4β2 nicotinic acetylcholine receptor (α4 subunit), sequence (P43681 27-627): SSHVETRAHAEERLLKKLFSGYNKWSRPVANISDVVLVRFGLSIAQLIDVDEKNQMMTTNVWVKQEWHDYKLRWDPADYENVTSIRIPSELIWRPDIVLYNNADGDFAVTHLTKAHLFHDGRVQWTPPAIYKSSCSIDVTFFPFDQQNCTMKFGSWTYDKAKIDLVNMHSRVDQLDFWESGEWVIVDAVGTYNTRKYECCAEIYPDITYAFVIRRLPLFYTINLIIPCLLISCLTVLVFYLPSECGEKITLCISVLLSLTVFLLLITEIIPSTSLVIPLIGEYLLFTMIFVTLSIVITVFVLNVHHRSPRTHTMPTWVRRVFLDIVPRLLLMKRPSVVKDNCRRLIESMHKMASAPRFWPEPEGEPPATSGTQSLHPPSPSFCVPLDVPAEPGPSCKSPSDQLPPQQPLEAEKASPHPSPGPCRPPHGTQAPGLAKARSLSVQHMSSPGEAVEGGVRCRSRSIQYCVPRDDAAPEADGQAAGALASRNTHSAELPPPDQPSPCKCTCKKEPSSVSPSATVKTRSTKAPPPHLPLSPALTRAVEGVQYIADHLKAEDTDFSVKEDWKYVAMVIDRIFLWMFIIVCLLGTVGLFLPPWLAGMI
α4β2 nicotinic acetylcholine receptor (α4 subunit), sequence (P17787 26-502): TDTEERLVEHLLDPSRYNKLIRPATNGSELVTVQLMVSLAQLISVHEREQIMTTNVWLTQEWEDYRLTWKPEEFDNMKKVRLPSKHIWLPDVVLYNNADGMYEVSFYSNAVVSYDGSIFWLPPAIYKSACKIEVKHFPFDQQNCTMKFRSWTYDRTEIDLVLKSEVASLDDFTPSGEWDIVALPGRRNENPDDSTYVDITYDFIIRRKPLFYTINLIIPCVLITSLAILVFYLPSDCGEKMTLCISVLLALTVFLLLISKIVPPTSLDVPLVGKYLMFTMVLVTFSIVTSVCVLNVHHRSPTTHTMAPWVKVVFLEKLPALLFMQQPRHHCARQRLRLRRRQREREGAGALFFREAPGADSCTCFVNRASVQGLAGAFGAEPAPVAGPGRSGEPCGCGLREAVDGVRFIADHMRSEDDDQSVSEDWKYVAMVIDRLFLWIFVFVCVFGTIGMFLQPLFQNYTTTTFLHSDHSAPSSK

O=[N+]([O-])NC1=NCCN1Cc1ccc(Cl)nc1 [IMI, imidacloprid]
Kb: 18.2 ± 0.9 µM
